The target in data set [1] is T1, human δ-opioid receptor (OPRD1) (Homo sapiens, UniProt P41143). Briefly: Forskolin-induced cAMP accumulation assay, DOR antagonist mode. As to conditions: for DOR Antagonist %Imax ± SEM: versus EC50 of SNC80, normalized to naltrexone.
Data set [2] has as its target T1, human δ-opioid receptor (OPRD1). Briefly: Forskolin-induced cAMP accumulation assay, DOR agonist mode. The conditions noted are these: for Emax: CHO-K1, read-out: DOR Agonist %Emax ± SEM.
The subject of data set [3] is squirrel monkeys. Briefly: Antinociception: warm-water tail-withdrawal. The class given is in vivo, squirrel monkeys (Saimiri sciureus). The conditions noted are these: 52 °C water, cumulative dosing. The protocol: Male squirrel monkeys (Saimiri sciureus) were housed in a climate-controlled vivarium with a 12 h light/dark cycle (7 AM–7 PM) in the McLean Hospital Animal Care Facility (licensed by the U.S. Department of Agriculture and compliant with guidelines provided by the Committee on Care and Use of Laboratory Animals of the Institute of Laboratory Animals Resources, Commission on Life Sciences, National Research Council; 2011). Tail withdrawal latencies were assessed as described previously. Briefly, monkeys were seated in customized Plexiglas chairs that allowed their tails to hang freely. Tail withdrawal latencies were measured by immersing the subject’s tail in water held at 35 or 52 °C (temperatures were presented in a randomized order during successive test components). After obtaining a baseline tail withdrawal latency, complete dose response curves were generated in each subject using standard cumulative dosing procedures. Briefly, every 15 min after an injection tail-withdrawal latencies at each temperature were redetermined and subjects were injected with the next dose, such that the total (cumulative) dose was increased by ½ log10 units in each successive cycle. This procedure was repeated until either (a) the tail-withdrawal latency from 52 °C water reached the maximum allowable latency (10 sec), or (b) tail-withdrawal latency no longer increased with increases in dose of the test drug.
(§1) All statistical analyses and graphic representations were completed with GraphPad Prism version 9.3.0 (GraphPad Software, San Diego, CA, USA) using log transformed values of doses. Group means ± SEM tail withdrawal latencies (in sec) and minute volume ratios are plotted as a function of drug dose. Data were analyzed using One-way ANOVA with significance set at p < 0.05, followed by Dunnett’s multiple comparison test.

The target in data set [4] is T2, human κ-opioid receptor (OPRK1) (Homo sapiens, UniProt P41145). Briefly: cell-based.
For data set [5], the target named is T3, mouse mu opioid receptor (Mus musculus, UniProt P42866).
T3 construct: expressed in transfected cells; host or cells: CHO (mMOR-CHO), membrane homogenates
Briefly: [35S]GTPγS functional assay (mMOR-CHO membranes). The class given is biochemical. The conditions noted are these: for EC50: mMOR-CHO membranes, read-out: GTPgS EC50; for Emax: read-out: GTPgS % Emax of (DAMGO).

Data set [6] concerns the target T2, human κ-opioid receptor (OPRK1). The conditions noted are these: versus EC90 of U50488H; normalized to nor-BNI.
Data set [7] concerns squirrel monkeys. Briefly: Respiratory depression: ventilatory response to hypercapnia (5% CO2 in air). Format: in vivo, squirrel monkeys (Saimiri sciureus). The conditions noted are these: ratio of minute volumes in 5% CO2 and room air, cumulative dosing. Here is the method:
Ventilation measures were assessed as described previously. Briefly, squirrel monkeys were acclimated to a customized acrylic chamber (10″ d × 10″ w × 10″ h) that served as a whole-body plethysmograph (EMKA Technologies, Montreal, PQ, Canada). Gas (either air or a 5% CO2 in air mixture) was introduced to and extracted from the chamber at a constant flow rate of 5 L/min. Experimental sessions consisted of 4–6 consecutive 30 min cycles, each comprising a 20 min exposure to air followed by a 10 min exposure to 5% CO2. Drug effects were determined using cumulative dosing procedures, and injections were administered following each exposure to 5% CO2. Respiratory rate and tidal volume (mL/breath) were recorded over 1 min periods and were multiplied to provide minute volumes. Data from the last three minutes of each exposure to air or CO2 were averaged and used for analysis of drug effects on ventilation.
as §1

Data set [8] addresses T3, mouse mu opioid receptor. Briefly: Competition radioligand binding assay ([3H]naloxone, mMOR-CHO membranes). As to conditions: 1.4 nM [3H]naloxone, read-out: [3H]NLX Binding Ki. Here is the method:
In vitro binding assays were performed using monocloned mouse mu opioid receptor expressing Chinese hamster ovary (CHO) cells (mMOR-CHO). mMOR-CHO cell culture and membrane homogenate preparation were performed as previously described. All assays were duplicated and repeated at least three times.
Competition binding assays were performed as previously described. […] Bound radioactive ligand was isolated by filtration through GF/B glass fiber filters and rinsed three times with ice-cold wash buffer (50 mM Tris-HCl, pH 7.2). Bound radioactivity was determined via liquid scintillation ounting. […] The IC50 values were determined by nonlinear regression analysis using GraphPad Prism 9 (GraphPad Software, San Diego, CA, USA) and converted to Ki values using the Cheng–Prusoff equation.

For data set [9], the target named is T2, human κ-opioid receptor (OPRK1). Briefly: cell-based. This is another data set of the same source.

“Also recorded” adds a separate entry of the source.

In general, IC50 refers to the concentration that inhibits the measured activity by half. A lower IC50 goes with greater potency in that assay. For orientation: EC50 means the concentration at which the effect is half-maximal. For orientation: Emax means the size of the effect at its maximum, as opposed to the concentration needed. Usually Ki stands for the dissociation constant of the complex between target and ligand, obtained from inhibition or displacement.

T1 sequence (P41143 whole entry): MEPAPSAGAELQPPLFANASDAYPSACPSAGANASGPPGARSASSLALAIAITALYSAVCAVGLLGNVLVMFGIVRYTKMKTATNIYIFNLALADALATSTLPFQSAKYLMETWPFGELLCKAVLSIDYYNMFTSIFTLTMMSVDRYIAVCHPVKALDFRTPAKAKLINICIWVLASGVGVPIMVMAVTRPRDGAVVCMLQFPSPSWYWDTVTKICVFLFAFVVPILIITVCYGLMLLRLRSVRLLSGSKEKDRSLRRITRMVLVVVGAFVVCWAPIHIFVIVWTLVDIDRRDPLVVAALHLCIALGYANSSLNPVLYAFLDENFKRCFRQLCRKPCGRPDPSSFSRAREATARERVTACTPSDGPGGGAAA
T2 sequence (P41145 whole entry): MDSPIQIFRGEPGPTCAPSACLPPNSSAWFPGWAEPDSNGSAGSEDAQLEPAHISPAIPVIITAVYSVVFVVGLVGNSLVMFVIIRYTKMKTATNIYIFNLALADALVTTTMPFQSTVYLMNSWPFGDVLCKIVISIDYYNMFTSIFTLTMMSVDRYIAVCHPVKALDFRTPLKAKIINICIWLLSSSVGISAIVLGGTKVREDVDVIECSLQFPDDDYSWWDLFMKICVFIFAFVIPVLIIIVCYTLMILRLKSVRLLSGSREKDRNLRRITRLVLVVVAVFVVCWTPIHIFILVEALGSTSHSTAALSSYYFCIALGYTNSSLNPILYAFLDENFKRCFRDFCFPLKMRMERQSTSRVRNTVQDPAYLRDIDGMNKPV
T3 sequence (P42866 whole entry): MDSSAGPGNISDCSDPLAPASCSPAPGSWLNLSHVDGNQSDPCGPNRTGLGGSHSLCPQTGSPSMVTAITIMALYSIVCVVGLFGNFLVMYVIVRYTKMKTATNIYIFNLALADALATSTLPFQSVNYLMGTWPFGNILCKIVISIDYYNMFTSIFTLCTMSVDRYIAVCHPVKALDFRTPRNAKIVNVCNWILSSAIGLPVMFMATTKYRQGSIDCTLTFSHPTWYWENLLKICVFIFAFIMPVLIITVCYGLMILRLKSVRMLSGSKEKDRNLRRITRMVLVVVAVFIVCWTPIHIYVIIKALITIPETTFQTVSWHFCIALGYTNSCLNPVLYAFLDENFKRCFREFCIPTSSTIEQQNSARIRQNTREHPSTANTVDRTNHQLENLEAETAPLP

Regarding `C=C[C@H]1[C@H]2CCC[C@]1(c1cccc(O)c1)CCN2CCc1ccccc1` [Compound 8, 3-((1R,5S,9R)-2-Phenethyl-9-vinyl-2-azabicyclo [3.3.1]nonan-5-yl)phenol], the IC50 in data set [1] was found to be 0.113 ± 0.0436 µM; in data set [9], 0.074 ± 0.0305 µM. Besides, the “DOR Antagonist %Imax ± SEM” value in [1] was 119.1 ± 15.5%. Also, the EC50 in data set [2] was more than 10 µM; in [4], more than 10 µM; in data set [5], 0.00673 ± 0.00135 µM. Also, in [3], the “Effect on tail withdrawal latency (antinociception)” value (“Effect on tail withdrawal latency” below) is “significantly increased tail withdrawal latency; also recorded: had antinociceptive effects”. For the same molecule, the Emax in data set [5] was 20.1 ± 0.78%. Further, in data set [6], the “KOR Antagonist %Imax ± SEM” value is 97.1 ± 9.2%. Also, the “Effect on ventilatory ratio (respiratory depression)” value in data set [7] is “reduced the ability of 5% CO2 to stimulate increases in ventilation; also recorded: morphine-like respiratory depressant effects”. Moreover, the Ki in data set [8] is 0.0005 ± 5e-05 µM.
Take `C=C[C@@H]1[C@H]2CCC[C@]1(c1cccc(O)c1)CCN2CCc1ccccc1` [Compound 9, 3-((1R,5S,9S)-2-Phenethyl-9-vinyl-2-azabicyclo [3.3.1]nonan-5-yl)phenol]: the figures for the EC50 in data set [2], in [4] and in data set [5] were 0.057 ± 0.0214 µM, more than 10 µM and 0.037 ± 0.0155 µM, respectively. Further, the Emax in data set [2] is 22.6%; in data set [5], 10.5 ± 0.82%. Further, the “Effect on tail withdrawal latency” value in data set [3] is listed as “inconsistent effect of tail withdrawal latency; also recorded: antinociceptive effects in some, but not all subjects”. The “KOR Antagonist %Imax ± SEM” value in data set [6] is recorded as 101.8 ± 19.1%. In addition, the “Effect on ventilatory ratio (respiratory depression)” value in data set [7] was “did not alter ventilation; also recorded: did not produce morphine-like decreases in ventilatory ratio”. Further, the Ki in data set [8] was determined as 0.00191 ± 0.00013 µM. Also, in data set [9], the IC50 amounted to 0.0198 ± 0.0097 µM.
`C=C[C@H]1[C@@H]2CCC[C@@]1(c1cccc(OC)c1)CCN2CCc1ccccc1` [Compound 13, (1S,5R,9R)-5-(3-Methoxyphenyl)-2-phenethyl-9-vinyl-2-azabicyclo [3.3.1]nonane]: the IC50 in [1] and in data set [9] was more than 10 µM throughout. Further, the EC50 in data set [2] and in data set [4] was more than 10 µM in each case.
Consider `C=C[C@@H]1[C@@H]2CCC[C@@]1(c1cccc(O)c1)CCN2CCc1ccccc1` [Compound 14, 3-((1S,5R,9S)-2-Phenethyl-9-vinyl-2-azabicyclo [3.3.1]nonan-5-yl)phenol], for which, in data set [2], the midpoint of the response, the EC50, lay at 0.122 ± 0.0472 µM and the Emax was 40.6%. Moreover, the EC50 in data set [4] is more than 10 µM. Also, the “KOR Antagonist %Imax ± SEM” value in data set [6] is listed as 105.6 ± 4.6%. Also, the IC50 in data set [9] came out at 0.128 ± 0.0482 µM.
For `C=C[C@H]1[C@@H]2CCC[C@@]1(c1cccc(O)c1)CCN2CCc1ccccc1` [Compound 15, 3-((1S,5R,9R)-2-Phenethyl-9-vinyl-2-azabicyclo [3.3.1]nonan-5-yl)phenol], the half-inhibitory concentration (IC50) in data set [1] is 0.144 ± 0.041 µM; in data set [9], 0.0284 ± 0.0042 µM. Besides, the “DOR Antagonist %Imax ± SEM” value in data set [1] is recorded as 201.4 ± 35.9%. Further, the EC50 in data set [2] and in data set [4] was more than 10 µM each time. Further, in data set [6], the “KOR Antagonist %Imax ± SEM” value is listed as 104.9 ± 11.2%.
Take `C/C=C\[C@@H]1[C@H]2CCC[C@]1(c1cccc(O)c1)CCN2CCc1ccccc1` [Compound 18, 3-((1R,5S,9S)-2-Phenethyl-9-((Z)-prop-1-en-1-yl)-2-azabicyclo [3.3.1]nonan-5-yl)phenol]: the EC50 was 0.00969 ± 0.00223 µM in data set [2], more than 10 µM in [4] and 0.00838 ± 0.00077 µM in data set [5]. Besides, the values for the Emax in data set [2] and in data set [5] were 74.5% and 75.3 ± 3.83%, respectively. The “KOR Antagonist %Imax ± SEM” value in data set [6] was 114.8 ± 11.2%. Moreover, the Ki in [8] was 0.00056 ± 7e-05 µM. Besides, half-maximal inhibition in [9] (IC50) was put at 0.238 ± 0.0526 µM.
As to `C/C=C\[C@H]1[C@@H]2CCC[C@@]1(c1cccc(O)c1)CCN2CCc1ccccc1` [Compound 20, 3-((1S,5R,9R)-2-Phenethyl-9-((Z)-prop-1-en-1-yl)-2-azabicyclo [3.3.1]nonan-5-yl)phenol], the IC50 stood at 0.00752 ± 0.00293 µM in data set [1] and 0.00402 ± 0.00025 µM in data set [9]. Moreover, the “DOR Antagonist %Imax ± SEM” value in data set [1] was 142.5 ± 23.7%. For the same molecule, the EC50 in data set [2] and in data set [4] was more than 10 µM each time. In addition, in data set [6], the “KOR Antagonist %Imax ± SEM” value amounted to 126.7 ± 2.6%.
Turning to `C/C=C\[C@@H]1[C@@H]2CCC[C@@]1(c1cccc(O)c1)CCN2CCc1ccccc1` [Compound 21, 3-((1S,5R,9S)-2-Phenethyl-9-((Z)-prop-1-en-1-yl)-2-azabicyclo [3.3.1]nonan-5-yl)phenol], the results for the EC50 in data set [2] and in data set [4] were 0.0605 ± 0.0037 µM and more than 10 µM, respectively. Further, the Emax in data set [2] is 66.7%. The “KOR Antagonist %Imax ± SEM” value in data set [6] came to 111.8 ± 2.2%. Further, half-maximal inhibition in data set [9] (IC50) was put at 0.163 ± 0.037 µM.
As to `CC/C=C\[C@H]1[C@H]2CCC[C@]1(c1cccc(O)c1)CCN2CCc1ccccc1` [Compound 23, 3-((1R,5S,9R)-9-((Z)-But-1-en-1-yl)-2-phenethyl-2-azabicyclo [3.3.1]nonan-5-yl)phenol], the values for the IC50 in data set [1] and in [9] were 0.069 ± 0.0048 µM and 0.328 ± 0.0969 µM, respectively. Moreover, the “DOR Antagonist %Imax ± SEM” value in [1] is recorded as 166.6 ± 40.0%. The EC50 in data set [2] and in data set [4] was more than 10 µM each time. Besides, in data set [6], the “KOR Antagonist %Imax ± SEM” value was found to be 109.5 ± 8.3%.
Take `CC/C=C\[C@@H]1[C@H]2CCC[C@]1(c1cccc(O)c1)CCN2CCc1ccccc1` [Compound 24, 3-((1R,5S,9S)-9-((Z)-But-1-en-1-yl)-2-phenethyl-2-azabicyclo [3.3.1]nonan-5-yl)phenol]: the IC50 worked out at 3.22 ± 0.572 µM in [1] and 0.283 ± 0.0464 µM in [9]. Further, the “DOR Antagonist %Imax ± SEM” value in data set [1] came out at 182.3 ± 56.4%. Moreover, the EC50 in data set [2] and in [4] was more than 10 µM in each case. Also, the “KOR Antagonist %Imax ± SEM” value in [6] is on record as 103.8 ± 9.2%.
Turning to `CC/C=C\[C@@H]1[C@@H]2CCC[C@@]1(c1cccc(O)c1)CCN2CCc1ccccc1` [Compound 26, 3-((1S,5R,9S)-9-((Z)-But-1-en-1-yl)-2-phenethyl-2-azabicyclo [3.3.1]nonan-5-yl)phenol], the half-inhibitory concentration (IC50) is 0.52 ± 0.144 µM in data set [1] and 0.0122 ± 0.0025 µM in data set [9]. Also, the “DOR Antagonist %Imax ± SEM” value in data set [1] was 226.1 ± 14.0%. For the same molecule, the EC50 in [2] and in [4] was more than 10 µM in each case. Besides, the “KOR Antagonist %Imax ± SEM” value in data set [6] turned out to be 96.2 ± 0.9%.
For `CC/C=C\[C@H]1[C@@H]2CCC[C@@]1(c1cccc(O)c1)CCN2CCc1ccccc1` [Compound 27, 3-((1S,5R,9R)-9-((Z)-But-1-en-1-yl)-2-phenethyl-2-azabicyclo [3.3.1]nonan-5-yl)phenol], the IC50 was 0.00822 ± 0.00244 µM in [1] and 0.00079 ± 0.00028 µM in data set [9]. For the same molecule, in data set [1], the “DOR Antagonist %Imax ± SEM” value amounted to 211.5 ± 24.7%. For the same molecule, the EC50 in data set [2] and in data set [4] was more than 10 µM each time. The “KOR Antagonist %Imax ± SEM” value in data set [6] was found to be 98.2 ± 2.3%.
As to `CN1CC[C@]23c4c5ccc(O)c4O[C@H]2[C@@H](O)C=C[C@H]3[C@H]1C5` [Morphine, reference compound], the “Effect on tail withdrawal latency” value in data set [3] is given as “significantly increased tail withdrawal latency”.

Values taken from article PMC9570967 (Molecules, 2022).
